The values that follow come from ChEMBL document CHEMBL1201862, “PubChem BioAssay data set” (2004).

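Cells were grown in 96-well plates and exposed to each compound for 48 hours at five concentrations; endpoints were interpolated linearly between bracketing concentrations, or set to the highest concentration if not reached. Abbreviation: GI50, concentration required for 50% inhibition of growth.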 Active and inactive are the calls of the source. Rule as the data show it: active = GI50 up to about 1.1 µM and inactive = higher. Bounds are passed on as bounds.

Holding throughout (experiment): growth of human tumour cells (NCI), 48 h
In test [1] the test system is HL-60.
Test [2] relates to OVCAR-5.
Test [3] concerns CCRF-CEM.
The subject of test [4] is KM12.
Test [5] deals with OVCAR-4.
In test [6] the test system is K562.
The test system of test [7] is SNB-19.
Test [8] concerns IGROV-1.
The subject of test [9] is HCT-15.
The test system of test [10] is UACC-257.
Test [11] has as its system RXF 393.
In test [12] the test system is HOP-62.
Test [13] deals with EKVX.
The test system of test [14] is TK-10.
In test [15] the test system is M14.
For test [16], the system named is SF-268.
The subject of test [17] is RPMI-8226.

For `CC1(C)OC2COC3(CNO)OC(C)(C)OC3C2O1` (centres undefined), the GI50 is 16.6 µM (inactive) in test [1]; > 100 µM (inactive) in test [2]; > 100 µM (inactive) in [3]; > 100 µM (inactive) in test [4]; > 100 µM (inactive) in test [5]; > 100 µM (inactive) in test [6]. Also, the GI50 in test [7] was > 100 µM (inactive); in test [8], > 100 µM (inactive); in test [9], more than 100 µM; in test [10], > 100 µM (inactive); in [11] it was > 100 µM (inactive); in test [12], > 100 µM (inactive). The GI50 in test [13], in [14], in test [15] and in [16] was > 100 µM (inactive) in each case.
Consider `COc1ccc2c(c1)C/C(=C\c1cccc3ccccc13)C2=O`, for which the GI50 in [1] was 4.95 µM (inactive); in [2], 94 µM (inactive); in test [3] it was 2.65 µM (inactive); in test [4], 5.41 µM (inactive); in test [5] it was 67.9 µM (inactive); in [6] it was 2.36 µM (inactive). For the same compound, the GI50 in [7] was 69.2 µM (inactive); in test [8], 17.3 µM (inactive); in [9], 4.7 µM; in test [11], 0.0902 µM (active); in [17], 25.3 µM (inactive); in test [13] it was 18.5 µM (inactive). The GI50 in test [14] was 6.07 µM (inactive); in [15], 5.97 µM (inactive); in [16], 18.4 µM (inactive).
Turning to `C[Si](C)(C)CC(N)=O`, the GI50 in test [1], in test [2], in [3], in [4], in [5] and in test [6] was > 100 µM (inactive) throughout. The GI50 in [7] is > 100 µM (inactive); in test [8] it was > 100 µM (inactive); in test [9] it was more than 100 µM; in test [10] it was > 100 µM (inactive); in test [11], > 100 µM (inactive); in test [12], > 100 µM (inactive). Also, the GI50 in test [17], in [13], in [14] and in test [15] was > 100 µM (inactive) each time.
For `O=c1cc(-c2ccccc2)[nH]c2c(Cl)cccc12`, the GI50 was 9.12 µM (inactive) in test [1]; 16.1 µM (inactive) in test [3]; 18.9 µM (inactive) in [5]; 2.77 µM (inactive) in [6]; 20.5 µM (inactive) in test [7]; 4.86 µM (inactive) in [8]. Also, the GI50 was 5.09 µM in test [9]; 78.3 µM (inactive) in [10]; 15.7 µM (inactive) in test [11]; 7.26 µM (inactive) in test [12]; 17 µM (inactive) in test [17]; 49.5 µM (inactive) in [13]. For the same compound, the results for the GI50 in [14], in test [15] and in test [16] were > 100 µM (inactive), 9.31 µM (inactive) and 38.4 µM (inactive), respectively.
As for `CCCC(=O)c1c(NOC2OCC(OC(C)=O)C(OC(C)=O)C2OC(C)=O)nc(OC)n(C)c1=O` (centres undefined), the GI50 in test [1] is 0.498 µM (active); in test [2], > 100 µM (inactive); in test [3], 3.25 µM (inactive); in test [4] it was > 100 µM (inactive); in test [5], > 100 µM (inactive); in [6], 17.4 µM (inactive). The GI50 in test [7] is > 100 µM (inactive); in [8] it was > 100 µM (inactive); in test [9], more than 100 µM; in [10], > 100 µM (inactive); in [11], > 100 µM (inactive); in [12] it was > 100 µM (inactive). Also, the GI50 in test [17], in [13], in test [14], in [15] and in [16] was > 100 µM (inactive) each time.
